Data published in publication PMC10375895, “Repurposed Fenoprofen Targeting SaeR Attenuates Staphylococcus aureus Virulence in Implant-Associated Infections” (ACS Central Science, 2023).

Biological target: SaeR (response regulator) (Staphylococcus aureus, UniProt Q2G2G2)
Assay: SPR titration with purified SaeR ([…]); EMSA shows loss of hla promoter DNA binding

Chain of SaeR (response regulator) (Q2G2G2 whole entry): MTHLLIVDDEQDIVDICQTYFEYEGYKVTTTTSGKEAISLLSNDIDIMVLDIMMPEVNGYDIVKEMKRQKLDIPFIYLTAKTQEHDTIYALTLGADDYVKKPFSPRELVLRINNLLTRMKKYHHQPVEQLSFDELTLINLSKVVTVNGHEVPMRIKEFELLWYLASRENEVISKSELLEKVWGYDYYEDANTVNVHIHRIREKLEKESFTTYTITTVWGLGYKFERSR

CC(C(=O)O)c1cccc(Oc2ccccc2)c1 (stereo not shown) [fenoprofen]
Kd: 16.5 µM
